Where two headings read alike, the source gives them in different places. Values belong to the compound of their own block, whether it stands above or below them.
Key:
[1] = system: Staphylococcus aureus ATCC 6538P FDA 209P; test: Antimicrobial activity, serial dilution (MIC/MBC), Sa; type: cell-based
[2] = system: methicillin-resistant strains of S. aureus (MRSA-1); test: Antimicrobial activity, serial dilution (MIC/MBC), MRSA-1; type: cell-based; details: Staphylococcus aureus
Procedure: (§1) The antimicrobial activity of the test compounds was determined by the serial dilution technique in Muller Hinton Broth 2 and in Sabouradu broth for fungi. The cultures used for testing included Gram-positive bacteria: Staphylococcus aureus ATCC 6538P FDA 209P, Bacillus cereus ATCC 10702 NCTC 8035, Enterococcus faecalis ATCC 29212; Gram-negative bacteria: Escherichia coli ATCC 25922, Pseudomonas aeruginosa ATCC 9027, and fungi: Trichophyton mentagrophytes var. gypseum 1773, and Candida albicans ATCC 10231; methicillin-resistant strains of S. aureus (MRSA) was obtained from hospital patients with chronic tonsillitis in the Republican Clinical Hospital (Kazan, Russia). The bacterial load was 3.0 × 10^5 cfu/ml. The fungi load was 2.0 × 10^3 cfu/ml. The results were recorded every 24 h for 5-7 days. Cultures were incubated at 37 °C. The experiment was repeated three times. […] The minimum inhibitory concentration (MIC) was defined as the minimum concentration of a compound that inhibits the growth of the corresponding test microorganism. The growth of bacteria, as well as the absence of the growth due to the bacteriostatic action of compounds, were recorded.
(§2) Synthesized compounds were further evaluated for antimicrobial activity against test microorganisms: Staphylococcus aureus ATCC 209p (Sa), Bacillus cereus ATCC 8035 (Bc), Escherichia coli CDC F-50 (Ec), Enterococcus faecalis (Ef), Pseudomonas aeruginosa ATCC 9027, Aspergillus niger BKMF-1119, Trichophyton mentagrophytes var. gypseum 1773, and Candida albicans 855-653 including methicillin-resistant strains of S. aureus (MRSA 1 and MRSA 2). The minimum inhibitory (MIC) and minimum bactericidal (MBC) concentrations of ammonium salts were determined against these pathogens (Table 1). Due to the lack of activity of compounds 3a-g against Gram-negative bacterial strains and some fungi, the corresponding data are not shown.

[3] = system: Phytophthora cactorum VKM F-985; test: Fungicidal activity, radial growth inhibition, P. cactorum; type: cell-based; details: for EC50: Phytophthora cactorum, 168 h, day 7, EC50 = 50C/I, read-out: EC50, μg/mL at day 7
Source text: Plant pathogenic bacterial strains Micrococcus luteus B-109, Pectobacterium atrosepticum 1043, Pectobacterium carotovorum subsp. carotovorum MI, Pseudomonas fluorescens EL-2.1, and Xanthomonas campestris B-610 and fungal strain Fusarium oxysporum IBPPM 543 were obtained from the specialized scientific culture collection of IBPPM RAS (WFCC no. 975, WDCM no. 1021) (CM IBPPM). Pathogenic fungus Phytophthora cactorum VKM F-985 provided by the All-Russian Collection of Microorganisms (VKM) and deposited at A.E. Favorsky Irkutsk Institute of Chemistry, SB RAS, was also used as test organism. Bacteria M. luteus, P. carotovorum subsp. carotovorum, P. atrosepticum, and Ps. fluorescens were grown in meat-peptone medium (BP), and X. campestris was grown in the medium with glucose, yeast extract, and calcium carbonate (GYCa). Solid media contained Bacto agar (18 g/L); pH was adjusted to 7.2-7.4. All bacterial cultures were grown at 28°C. The mycelial cultures of F. oxysporum and P. cactorum were grown on a glucose-peptone-yeast (GPY) nutrient medium at 27 °C. For inoculum preparation, both fungal strains were initially grown on the agar GPY in Petri dishes and then transferred into the seed medium by punching out 5 mm of the agar plate culture with a self-designed cutter.
For the fungicidal activity analysis, radial growth (colony diameters) of the fungi on a solid medium in the absence and in the presence of the compounds 3a,c-g solutions at various concentrations were compared. The method consisted of the following: sterile, melted and then cooled to about 60°C GPY agar medium (20.0 ml) was mixed with the precisely measured volumes of the solutions under question, and poured into a sterile Petri dish (90 mm i.d.). After solidification of GPY agar, the media were inoculated by the fungus using 10-day-old cultures of F. oxysporum or P. cactorum. The inoculation was done by transferring a 5-mm (i.d.) GPY-agar block covered with mycelium to the center of the Petri dish followed by incubation in a thermostat at 27°C. The fungicidal effect was scored by the size of mycelium colony on a Petri dish compared to the control without fungicidal admixtures to GPY agar. Each treatment was performed in at least four replicates in two independent experiments. The observation period ended when the control Petri dish was filled with mycelium (usually after 12 days). The inhibition of the phytopathogen colony growth by the compounds 3a,c-g or fludioxonil solutions was calculated as a percentage by which the mycelium radial propagation was decreased compared to the unaffected control, the latter was taken as 100 % of growth (or zero percent of inhibition). The EC50 value was calculated as the compound concentration at which the radial growth of the fungus colony was decreased by 50 % relative to the non-fungicidal control, according to the formula EC50 = 50C/I based on the approach developed e.g., in [34, 35].
The solutions of tested compounds were prepared with a concentration of 2 mmol/l (stock solution). For comparison, test compounds were also commonly applied disinfecting agents and antibiotics.

[4] = system: methicillin-resistant strains of S. aureus (MRSA-2); test: Antimicrobial activity, serial dilution (MIC/MBC), MRSA-2; type: cell-based; details: Staphylococcus aureus
Procedure: as §1, §2

[5] = system: Bacillus cereus ATCC 10702 NCTC 8035; test: Antimicrobial activity, serial dilution (MIC/MBC), Bc; type: cell-based
[6] = system: MRSA-1 and MRSA-2 compared to erythrocytes and hepatocytes; test: Selectivity index (HC50 or IC50 / MIC); parameters: species or system Staphylococcus aureus; details: resistant strains MRSA-1 and MRSA-2 compared to erythrocytes and hepatocytes
Procedure: The selectivity of compounds for microbial cells is an important criterion for assessing the cytotoxic effect. This indicator is characterized by the value of the selectivity index (SI), which for the leading compounds 3b, 3c, and 3d was calculated as the ratio between the HC50 value for erythrocytes (IC50 for eukaryotic cells) and the MIC value for bacterial cells (Fig. 4). […] Its selectivity index was 3–8 times higher than that of compounds 3b and 3c.

[7] = Staphylococcus aureus, read-out: MBC (converted)
[8] = C 1.26 μg/mL, age of the fungus 3 days
[9] = C 1.26 μg/mL, age of the fungus 5 days
[10] = C 1.26 μg/mL, age of the fungus 7 days
[11] = C 1.26 μg/mL, age of the fungus 9 days
[12] = C 1.26 μg/mL, age of the fungus 12 days
[13] = C 3.15 μg/mL, age of the fungus 3 days
[14] = C 3.15 μg/mL, age of the fungus 5 days
[15] = C 3.15 μg/mL, age of the fungus 7 days
[16] = C 3.15 μg/mL, age of the fungus 9 days
[17] = C 3.15 μg/mL, age of the fungus 12 days
[18] = C 6.30 μg/mL, age of the fungus 3 days
[19] = C 6.30 μg/mL, age of the fungus 5 days
[20] = C 6.30 μg/mL, age of the fungus 7 days
[21] = C 6.30 μg/mL, age of the fungus 9 days
[22] = C 6.30 μg/mL, age of the fungus 12 days
[23] = C 9.45 μg/mL, age of the fungus 3 days
[24] = C 9.45 μg/mL, age of the fungus 5 days
[25] = C 9.45 μg/mL, age of the fungus 7 days
[26] = C 9.45 μg/mL, age of the fungus 9 days
[27] = C 9.45 μg/mL, age of the fungus 12 days
[28] = C 12.60 μg/mL, age of the fungus 3 days
[29] = C 12.60 μg/mL, age of the fungus 5 days
[30] = C 12.60 μg/mL, age of the fungus 7 days
[31] = C 12.60 μg/mL, age of the fungus 9 days
[32] = C 12.60 μg/mL, age of the fungus 12 days

MIC ([1]; Staphylococcus aureus): 3.1 ± 0.2 µM
MIC [2]: 49.7 ± 3.9 µM
MIC [4]: 24.8 ± 2.2 µM
MIC [5]: 24.8 ± 1.9 µM
MIC ([5]; Bacillus cereus, read-out: MIC): ~25 µM
SMILES: CCc1cccc2c1N(Cc1cc(C(C)(C)C)c(O)c(C(C)(C)C)c1)C(=O)/C2=N\NC(=O)C[N+](CC)(CC)CC [Compound 3c, 2-(2-(1-(3,5-Di-tert-butyl-4-hydroxybenzyl)-7-ethyl-2-oxoindolin-3-ylidene)hydrazinyl)-N,N,N-triethyl-2-oxoethanammonium bromide]
MBC [1]: 6.2 ± 0.5 µM
MBC [1, 7]: 6.2 µM
MBC [2]: 99.3 µM
Inhibition value, I (%) [3, 8]: 17%
Inhibition value, I (%) [3, 9]: 28%
Inhibition value, I (%) [3, 10]: 30%
Inhibition value, I (%) [3, 11]: 12%
Inhibition value, I (%) [3, 12]: 3%
Inhibition value, I (%) [3, 13]: 29%
Inhibition value, I (%) [3, 14]: 31%
Inhibition value, I (%) [3, 15]: 38%
Inhibition value, I (%) [3, 16]: 20%
Inhibition value, I (%) [3, 17]: 16%
Inhibition value, I (%) [3, 18]: 33%
Inhibition value, I (%) [3, 19]: 44%
Inhibition value, I (%) [3, 20]: 45%
Inhibition value, I (%) [3, 21]: 28%
Inhibition value, I (%) [3, 22]: 20%
Inhibition value, I (%) [3, 23]: 39%
Inhibition value, I (%) [3, 24]: 45%
Inhibition value, I (%) [3, 25]: 48%
Inhibition value, I (%) [3, 26]: 41%
Inhibition value, I (%) [3, 27]: 36%
Inhibition value, I (%) [3, 28]: 50%
Inhibition value, I (%) [3, 29]: 56%
Inhibition value, I (%) [3, 30]: 61%
Inhibition value, I (%) [3, 31]: 58%
Inhibition value, I (%) [3, 32]: 48%
EC50 [3]: 2.1 µg/mL
MBC [4]: 99.3 µM
MBC ([5]; Bacillus cereus): 99.3 µM

MIC ([1]; Staphylococcus aureus): 3.1 ± 0.2 µM
MIC [2]: 6.2 ± 0.5 µM
MIC [4]: 6.2 ± 0.5 µM
MIC ([5]; Bacillus cereus, read-out: MIC): 49.6 ± 3.9 µM
SMILES: CC[N+](CC)(CC)CC(=O)N/N=C1\C(=O)N(Cc2cc(C(C)(C)C)c(O)c(C(C)(C)C)c2)c2c1ccc(C)c2C [Compound 3d, 2-(2-(1-(3,5-Di-tert-butyl-4-hydroxybenzyl)-6,7-dimethyl-2-oxoindolin-3-ylidene)hydrazinyl)-N,N,N-triethyl-2-oxoethanammonium bromide]
MBC [1, 7]: 12.4 µM
MBC [2]: 12.4 µM
selectivity index, times higher than that of compounds 3b and 3c [6]: 3–8 times
Inhibition value, I (%) [3, 8]: 18%
Inhibition value, I (%) [3, 9]: 17%
Inhibition value, I (%) [3, 10]: 5%
Inhibition value, I (%) [3, 11]: 0%
Inhibition value, I (%) [3, 12]: 0%
Inhibition value, I (%) [3, 13]: 23%
Inhibition value, I (%) [3, 14]: 18%
Inhibition value, I (%) [3, 15]: 14%
Inhibition value, I (%) [3, 16]: 6%
Inhibition value, I (%) [3, 17]: 5%
Inhibition value, I (%) [3, 18]: 29%
Inhibition value, I (%) [3, 19]: 19%
Inhibition value, I (%) [3, 20]: 15%
Inhibition value, I (%) [3, 21]: 8%
Inhibition value, I (%) [3, 22]: 7%
Inhibition value, I (%) [3, 23]: 31%
Inhibition value, I (%) [3, 24]: 20%
Inhibition value, I (%) [3, 25]: 17%
Inhibition value, I (%) [3, 26]: 9%
Inhibition value, I (%) [3, 27]: 8%
Inhibition value, I (%) [3, 28]: 50%
Inhibition value, I (%) [3, 29]: 50%
Inhibition value, I (%) [3, 30]: 51%
Inhibition value, I (%) [3, 31]: 48%
Inhibition value, I (%) [3, 32]: 35%
EC50 [3]: 11.2 µg/mL
MBC [4]: 49.6 µM
MBC ([5]; Bacillus cereus): 198 µM

MIC ([1]; Staphylococcus aureus): 48.3 ± 3.9 µM
MIC ([5]; Bacillus cereus, read-out: MIC): 397 ± 31.7 µM
SMILES: CC[N+](CC)(CC)CC(=O)N/N=C1\C(=O)N(Cc2cc(C(C)(C)C)c(O)c(C(C)(C)C)c2)c2ccc([N+](=O)[O-])cc21 [Compound 3f, 2-(2-(1-(3,5-Di-tert-butyl-4-hydroxybenzyl)-5-nitro-2-oxoindolin-3-ylidene)hydrazinyl)-N,N,N-triethyl-2-oxoethanammonium bromide]
MBC [1, 7]: 96.7 µM
Inhibition value, I (%) ([3]; C 1.29 μg/mL, age of the fungus 3 days): 17%
Inhibition value, I (%) ([3]; C 1.29 μg/mL, age of the fungus 5 days): 11%
Inhibition value, I (%) ([3]; C 1.29 μg/mL, age of the fungus 7 days): 2%
Inhibition value, I (%) ([3]; C 1.29 μg/mL, age of the fungus 9 days): 0%
Inhibition value, I (%) ([3]; C 1.29 μg/mL, age of the fungus 12 days): 0%
Inhibition value, I (%) ([3]; C 3.24 μg/mL, age of the fungus 3 days): 33%
Inhibition value, I (%) ([3]; C 3.24 μg/mL, age of the fungus 5 days): 19%
Inhibition value, I (%) ([3]; C 3.24 μg/mL, age of the fungus 7 days): 18%
Inhibition value, I (%) ([3]; C 3.24 μg/mL, age of the fungus 9 days): 1%
Inhibition value, I (%) ([3]; C 3.24 μg/mL, age of the fungus 12 days): 0%
Inhibition value, I (%) ([3]; C 6.47 μg/mL, age of the fungus 3 days): 35%
Inhibition value, I (%) ([3]; C 6.47 μg/mL, age of the fungus 5 days): 23%
Inhibition value, I (%) ([3]; C 6.47 μg/mL, age of the fungus 7 days): 20%
Inhibition value, I (%) ([3]; C 6.47 μg/mL, age of the fungus 9 days): 8%
Inhibition value, I (%) ([3]; C 6.47 μg/mL, age of the fungus 12 days): 1%
Inhibition value, I (%) ([3]; C 9.71 μg/mL, age of the fungus 3 days): 41%
Inhibition value, I (%) ([3]; C 9.71 μg/mL, age of the fungus 5 days): 36%
Inhibition value, I (%) ([3]; C 9.71 μg/mL, age of the fungus 7 days): 32%
Inhibition value, I (%) ([3]; C 9.71 μg/mL, age of the fungus 9 days): 20%
Inhibition value, I (%) ([3]; C 9.71 μg/mL, age of the fungus 12 days): 16%
Inhibition value, I (%) ([3]; C 12.94 μg/mL, age of the fungus 3 days): 59%
Inhibition value, I (%) ([3]; C 12.94 μg/mL, age of the fungus 5 days): 55%
Inhibition value, I (%) ([3]; C 12.94 μg/mL, age of the fungus 7 days): 53%
Inhibition value, I (%) ([3]; C 12.94 μg/mL, age of the fungus 9 days): 48%
Inhibition value, I (%) ([3]; C 12.94 μg/mL, age of the fungus 12 days): 30%
EC50 [3]: 8.99 µg/mL
MBC ([5]; Bacillus cereus): > 500 µM
